We go through one molecule from patent US12453757B2, “Method for ameliorating autism symptoms by pharmacological activation of the neurotensin receptor 1 (NTSR1)” (New York Institute of Technology, priority 2022, dated 2025).

In one data set the test system is mice. As to the kind of experiment: Lethargy side effect after injection. It counts as in vivo, mouse.
Data set [1] has as its system CNTNAP2 knockout mouse model of autism. As to the kind of experiment: Odor detection in novel background odors (go/no-go behavioral task), CNTNAP2 knockout mice. It is filed as in vivo. As for the experimental part:
(§1) FIG. 1: Behavioral task used to test the effect of PD149163. Water-deprived, head-fixed mice were trained to identify target odors in the presence of background odors. […] If the target was the “go target” odors and the mouse licked, the mouse was rewarded with a small amount water. If the mouse wrongly licked the “no-go target” odors, no water was delivered and it was given a time out. After 10-13 days, mice performance exceeded 80%. The mice were then tested with the test set, that consisted of the same target odors but with novel background odors.
(§2) In order to test the effect of NTSR1 agonists, a novel behavioral task was used developed in the lab. In this task (see FIG. 1), water-deprived, head-fixed mice were trained to identify target odors in the presence of background odors. If the mouse responded to the go target odors, it was rewarded with water. If the mouse wrongly responded to the no-go target odors, no water was delivered and it experienced a time out. Chance performance was 0.5 and optimal performance was 1. After mice mastered this task (performance>0.8) with a set of known background odors after ˜10 days of training, the animals were tested with the same targets but in the presence of novel background odors. The performance of WT mice with novel background odors is above chance (0.74, 95% CI: 0.68-0.80, 3 WT mice).
This novel behavioral task was used to test the effects of the neurotensin receptor 1 agonists. The performances of both mouse models of autism without PD149163 (a peptide neurotensin receptor 1 agonist) were lower than the performance of the WT mice (SHANK3 haploinsufficiency: 0.62, 95% CI: 0.59-0.66, 6 mice, each mouse tested on 4 different days, CNTNAP2 knockout: 0.61, 95% CI: 0.56-0.65, 4 mice) (see FIG. 2). […] This dosage reversed the recognition deficit in novel environments shown by both mouse models of autism, with performance that matched the performance of the WT mice (SHANK3 haploinsufficiency: 0.81, 95% CI: 0.77-0.85, 6 mice, each mouse tested on 2 different days, CNTNAP2 knockout: 0.82, 95% CI: 0.77-0.86, 4 mice). […]

The subject of data set [2] is SHANK3 and CNTNAP2 mouse models of autism. Kind of data set: Odor detection in novel background odors, both mouse models of autism pooled (dose response, duration). It counts as in vivo. As for the experimental part:
FIG. 3: Performance of odor detection in novel environments as a function of the dose of PD149163 injected subcutaneously using saline as vehicle. The bars represent the average performance for all 10 tested mice (four CNTNAP2 mice and six SHANK3 mice) at the three doses tested. The error bars are the 95% CI. The lines represent the performance for individual mice. The p values were calculated using paired t-test to compare the average performances of the 10 tested mice using the 0.13 mg/kg against the 0.065 mg/kg dose and the no drug condition.
as §2, with “mice). […]” for “mice).”

Data set [3] relates to SHANK3 haploinsufficiency mouse model of autism. As to the kind of experiment: Odor detection in novel background odors (go/no-go behavioral task), SHANK3 haploinsufficiency mice. It is filed as in vivo. The note with it: 6 mice, 0.13 mg/kg subcutaneous in saline, 30 minutes before test, chance 0.5, optimal 1. As for the experimental part: as §1
as §2, with “mice). […]” for “mice).”

Structures can show the parent of a compound that is named as a salt. Numbered stars: 1 amine (or outer) side, 2 acyl side, 3 side chain; on linkers, the order of the positions; unused ones are H or OH. Square brackets hold non-standard residues; d marks the D form. Peptide text beside a SMILES is read from it. X1 = NCCCC[C@H](N)CN([C@@H](CCCCN)C(=O)[*:2])[*:1]; Tle = CC(C)(C)[C@H](N)C(=O)O

As for `CCOC(=O)[C@H](CC(C)C)NC(=O)[C@@H](NC(=O)[C@H](Cc1c[nH]c2ccccc12)NC(=O)[C@@H]1CCCN1C(=O)[C@H](CCCCN)NC[C@@H](N)CCCCN)C(C)(C)C` [PD149163, N2-[(2S)-2,6-Diaminohexyl]-L-lysyl-L-prolyl-L-tryptophyl-3-methyl-L-valyl-L-Leucine ethyl ester tetrahydrochloride hydrate] (H-[X1]PW[Tle]L-OEt), the Lethargy result with mice (0.26 mg/Kg subcutaneous, PEG400 as vehicle, 2 SHANK3 mice) is “no lethargy”; in the data set on mice (0.26 mg/kg subcutaneous, saline as vehicle) it was “produced lethargy”; in the data set with mice (therapeutic dose by intraperitoneal injection instead of subcutaneous), “resulted also in lethargy”. The “Performance of odor detection with novel background odors” value came to 0.76 in data set [1] (CNTNAP2 knockout male mice (2 mice, 2 sessions), 0.39 mg/kg in PEG400 (80 μg/ml), two subcutaneous injections 1 hour and 30 minutes before task); 0.54 in data set [1] (CNTNAP2 knockout male mice (2 mice, 5 sessions), 0.13 mg/kg subcutaneous in saline, 30 minutes before test); 0.82 in data set [1] (CNTNAP2 knockout, 4 mice, 0.13 mg/kg subcutaneous in saline, 30 minutes before test, chance 0.5, optimal 1); 0.81 in data set [3]. Besides, the “Duration of drug effects on performance” value in data set [2] (0.13 mg/kg subcutaneous in saline, returned to baseline the next day) is “less than 24 hours”. For the same molecule, the “Improvement of behavior (odor detection performance)” value in data set [2] (half dose 0.065 mg/kg subcutaneous, saline as vehicle) is recorded as “did not produce an improvement”.
